Reference: US8247211B2, “Glycopeptide antibiotics” (American Cyanamid Company, priority 2001, dated 2012)
Converted amounts (≈) assume the structure as drawn. One block for each compound: values may come before it.

Assays:
Assay in all cases: In vitro antibacterial evaluation: minimum inhibitory concentration (MIC), broth dilution method
Assay type in all cases: cell-based
Details in all cases: 18 hours at 35° C.
[1] = system: Staphylococcus sp.
Outline: (§1)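 Broth dilution per NCCLS M7-A2 in Muller-Hinton II […], inoculum 5×10^5 CFU/mL, antibiotic tested over 64-0.06 μg/mL. MIC is taken as the lowest concentration that inhibits growth. Panel includes recent clinical isolates resistant to methicillin, penicillin and/or vancomycin.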

[2] = system: Escherichia coli
Outline: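 Test strains, among them recent clinical isolates carrying methicillin, penicillin and/or vancomycin resistance, were inoculated at 5×10^5 CFU/mL. A broth dilution series spanning 64-0.06 μg/mL in Muller-Hinton II […] (NCCLS M7-A2) defined the MIC as the lowest growth-inhibiting concentration.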

[3] = system: Enterococcus sp.
Outline: as §1

[4] = system: Streptococcus sp.
Outline: as §1

[5] = Enterococcus faecalis (GC 2242)
[6] = Enterococcus faecalis (GC 2691)
[7] = Enterococcus faecalis (GC 3059)
[8] = broth dilution, inoculum 5×10^5 CFU/mL
[9] = Streptococcus agalactiae (GC 4564)
[10] = Streptococcus pneumoniae (ATCC 6301)
[11] = Streptococcus pneumoniae (GC 1894)
[12] = Streptococcus pneumoniae (GC 4565)
[13] = Streptococcus pyogenes (GC 4563)

MIC Coagulase Negative Staphylococcus (GC 4547) [1]: 2 µg/mL (≈ 1.34 µM)
MIC Coagulase Negative Staphylococcus (GC 4548) [1]: 1 µg/mL (≈ 0.672 µM)
MIC Coagulase Negative Staphylococcus (GC 4549) [1]: 2 µg/mL (≈ 1.34 µM)
MIC Coagulase Negative Staphylococcus (GC 4551) [1]: 4 µg/mL (≈ 2.69 µM)
MIC Coagulase Negative Staphylococcus (GC 6257) [1]: 2 µg/mL (≈ 1.34 µM)
MIC Staphylococcus aureus (ATCC 29213) [1]: 2 µg/mL (≈ 1.34 µM)
MIC Staphylococcus aureus (GC 1131) [1]: 2 µg/mL (≈ 1.34 µM)
MIC Staphylococcus aureus (GC 3051) [1]: 2 µg/mL (≈ 1.34 µM)
MIC Staphylococcus aureus (GC 3053) [1]: 2 µg/mL (≈ 1.34 µM)
MIC Staphylococcus aureus (GC 4541) [1]: 2 µg/mL (≈ 1.34 µM)
MIC Staphylococcus aureus (GC 4542) [1]: 2 µg/mL (≈ 1.34 µM)
MIC Staphylococcus aureus (GC 4544) [1]: 2 µg/mL (≈ 1.34 µM)
MIC Staphylococcus aureus (GC 4545) [1]: 2 µg/mL (≈ 1.34 µM)
MIC Staphylococcus aureus-SMITH (GC 4543) [1]: 2 µg/mL (≈ 1.34 µM)
MIC Escherichia coli (ATCC 25922) [2]: >64 µg/mL
MIC Escherichia coli (GC 4559) [2]: >64 µg/mL
MIC Escherichia coli (GC 4560) [2]: 2 µg/mL (≈ 1.34 µM)
MIC Enterococcus avium (GC 4558) [3]: 4 µg/mL (≈ 2.69 µM)
MIC Enterococcus faecalis (ATCC 29212) [3]: 4 µg/mL (≈ 2.69 µM)
MIC Enterococcus faecalis (GC 2242) [3, 5]: 4 µg/mL (≈ 2.69 µM)
MIC Enterococcus faecalis (GC 2691) [3, 6]: 4 µg/mL (≈ 2.69 µM)
MIC Enterococcus faecalis (GC 3059) [3, 7]: 2 µg/mL (≈ 1.34 µM)
MIC Enterococcus faecalis (GC 4552) [3]: 4 µg/mL (≈ 2.69 µM)
MIC Enterococcus faecalis (GC 4553) [3]: 4 µg/mL (≈ 2.69 µM)
MIC Enterococcus faecalis (GC 4554) [3]: 4 µg/mL (≈ 2.69 µM)
MIC Enterococcus faecalis (GC 6189) [3]: 2 µg/mL (≈ 1.34 µM)
MIC Enterococcus faecium (GC 2243) [3]: 4 µg/mL (≈ 2.69 µM)
MIC Enterococcus faecium (GC 4556) [3]: 4 µg/mL (≈ 2.69 µM)
MIC Enterococcus faecium (GC 4557) [3]: 2 µg/mL (≈ 1.34 µM)
MIC Enterococcus faecalis (GC 2242) [3, 8]: 4 µg/mL (≈ 2.69 µM)
MIC Enterococcus faecalis (GC 2691) [3, 8]: 4 µg/mL (≈ 2.69 µM)
MIC Enterococcus faecalis (GC 3059) [3, 8]: 2 µg/mL (≈ 1.34 µM)
MIC Streptococcus agalactiae (GC 4564) [4, 9]: <0.06 µg/mL
MIC Streptococcus pneumoniae (ATCC 6301) [4, 10]: <0.06 µg/mL
MIC Streptococcus pneumoniae (GC 1894) [4, 11]: <0.06 µg/mL
MIC Streptococcus pneumoniae (GC 4565) [4, 12]: <0.06 µg/mL
MIC Streptococcus pyogenes (GC 4563) [4, 13]: <0.06 µg/mL
MIC Streptococcus agalactiae (GC 4564) [4, 8]: <0.06 µg/mL
MIC Streptococcus pneumoniae (ATCC 6301) [4, 8]: <0.06 µg/mL
MIC Streptococcus pneumoniae (GC 1894) [4, 8]: <0.06 µg/mL
MIC Streptococcus pneumoniae (GC 4565) [4, 8]: <0.06 µg/mL
MIC Streptococcus pyogenes (GC 4563) [4, 8]: <0.06 µg/mL
Compound: CC(c1ccccc1)C1NC(=O)CNC(=O)C(CO)NC(=O)C(C(O)C2CNC(=N)N2C2OC(CO)C(O)C(O)C2O)NC(=O)C(C(O)C2CNC(=N)N2)NC(=O)C(Cc2ccc(OC3OC(CO)C(OC4OC(COCC=C(c5ccccc5)c5ccccc5)C(O)C(O)C4O)C(O)C3O)cc2)NC1=O (stereo not drawn) [Example 241, Cyclo[glycyl-β-methylphenylalanyl-O-[4-O-[6-O-[3,3-diphenylprop-2-en-1-yl)hexopyranosyl]-hexopyranosyl]tyrosyl-3-(2-iminoimidazolidin-4-yl)seryl-3-(3-hexopyranosyl-2-iminoimidazolidin-4-yl)serylseryl]]
MIC Staphylococcus haemolyticus (GC 4546) [1]: 2 µg/mL (≈ 1.34 µM)

MIC Coagulase Negative Staphylococcus (GC 4547) [1]: 4 µg/mL (≈ 2.69 µM)
MIC Coagulase Negative Staphylococcus (GC 4548) [1]: 2 µg/mL (≈ 1.34 µM)
MIC Coagulase Negative Staphylococcus (GC 4549) [1]: 1 µg/mL (≈ 0.672 µM)
MIC Coagulase Negative Staphylococcus (GC 4551) [1]: 4 µg/mL (≈ 2.69 µM)
MIC Coagulase Negative Staphylococcus (GC 6257) [1]: 1 µg/mL (≈ 0.672 µM)
MIC Staphylococcus aureus (ATCC 29213) [1]: 2 µg/mL (≈ 1.34 µM)
MIC Staphylococcus aureus (GC 1131) [1]: 2 µg/mL (≈ 1.34 µM)
MIC Staphylococcus aureus (GC 3051) [1]: 2 µg/mL (≈ 1.34 µM)
MIC Staphylococcus aureus (GC 3053) [1]: 2 µg/mL (≈ 1.34 µM)
MIC Staphylococcus aureus (GC 4541) [1]: 2 µg/mL (≈ 1.34 µM)
MIC Staphylococcus aureus (GC 4542) [1]: 2 µg/mL (≈ 1.34 µM)
MIC Staphylococcus aureus (GC 4544) [1]: 4 µg/mL (≈ 2.69 µM)
MIC Staphylococcus aureus (GC 4545) [1]: 2 µg/mL (≈ 1.34 µM)
MIC Staphylococcus aureus-SMITH (GC 4543) [1]: 2 µg/mL (≈ 1.34 µM)
MIC Escherichia coli (ATCC 25922) [2]: >64 µg/mL
MIC Escherichia coli (GC 4559) [2]: >64 µg/mL
MIC Escherichia coli (GC 4560) [2]: 2 µg/mL (≈ 1.34 µM)
MIC Enterococcus avium (GC 4558) [3]: 2 µg/mL (≈ 1.34 µM)
MIC Enterococcus faecalis (ATCC 29212) [3]: 4 µg/mL (≈ 2.69 µM)
MIC Enterococcus faecalis (GC 2242) [3, 5]: 4 µg/mL (≈ 2.69 µM)
MIC Enterococcus faecalis (GC 2691) [3, 6]: 2 µg/mL (≈ 1.34 µM)
MIC Enterococcus faecalis (GC 3059) [3, 7]: 2 µg/mL (≈ 1.34 µM)
MIC Enterococcus faecalis (GC 4552) [3]: 4 µg/mL (≈ 2.69 µM)
MIC Enterococcus faecalis (GC 4553) [3]: 4 µg/mL (≈ 2.69 µM)
MIC Enterococcus faecalis (GC 4554) [3]: 4 µg/mL (≈ 2.69 µM)
MIC Enterococcus faecalis (GC 6189) [3]: 2 µg/mL (≈ 1.34 µM)
MIC Enterococcus faecium (GC 2243) [3]: 2 µg/mL (≈ 1.34 µM)
MIC Enterococcus faecium (GC 4556) [3]: 2 µg/mL (≈ 1.34 µM)
MIC Enterococcus faecium (GC 4557) [3]: 2 µg/mL (≈ 1.34 µM)
MIC Enterococcus faecalis (GC 2242) [3, 8]: 4 µg/mL (≈ 2.69 µM)
MIC Enterococcus faecalis (GC 2691) [3, 8]: 2 µg/mL (≈ 1.34 µM)
MIC Enterococcus faecalis (GC 3059) [3, 8]: 2 µg/mL (≈ 1.34 µM)
MIC Streptococcus agalactiae (GC 4564) [4, 9]: <0.06 µg/mL
MIC Streptococcus pneumoniae (ATCC 6301) [4, 10]: <0.06 µg/mL
MIC Streptococcus pneumoniae (GC 1894) [4, 11]: <0.06 µg/mL
MIC Streptococcus pneumoniae (GC 4565) [4, 12]: <0.06 µg/mL
MIC Streptococcus pyogenes (GC 4563) [4, 13]: <0.06 µg/mL
MIC Streptococcus agalactiae (GC 4564) [4, 8]: <0.06 µg/mL
MIC Streptococcus pneumoniae (ATCC 6301) [4, 8]: <0.06 µg/mL
MIC Streptococcus pneumoniae (GC 1894) [4, 8]: <0.06 µg/mL
MIC Streptococcus pneumoniae (GC 4565) [4, 8]: <0.06 µg/mL
MIC Streptococcus pyogenes (GC 4563) [4, 8]: <0.06 µg/mL
Compound: CC(c1ccccc1)C1NC(=O)CNC(=O)C(CO)NC(=O)C(C(O)C2CNC(=N)N2C2OC(CO)C(O)C(O)C2O)NC(=O)C(C(O)C2CNC(=N)N2)NC(=O)C(Cc2ccc(OC3OC(CO)C(OC4OC(CO)C(OCC=C(c5ccccc5)c5ccccc5)C(O)C4O)C(O)C3O)cc2)NC1=O (stereo not drawn) [Example 241a, Cyclo[glycyl-β-methylphenylalanyl-O-[4-O-[4-O-(3,3-diphenylprop-2-en-1-yl)hexopyranosyl]-hexopyranosyl]tyrosyl-3-(2-iminoimidazolidin-4-yl)seryl-3-[3-hexopyranosyl-2-iminoimidazolidin-4-yl)serylseryl]]
MIC Staphylococcus haemolyticus (GC 4546) [1]: 2 µg/mL (≈ 1.34 µM)
